# Reference: patent publication US6551615B1, “Dexibuprofen-containing soft gelatin capsules and process for preparing the same” (M/s. Strides Arcolab Limited, priority 2001, dated 2003)
# Assays:
# [1] = cited from earlier work
# [2] = Compatibility of dexibuprofen with glycerin plasticizer; format: physicochemical; conditions: in some instances
# Excerpt: In general, gelatin capsule formulations for soft gelatin capsules comprise raw gelatin and one or more plasticizers added to adjust the hardness of the capsule. Typical plasticizers include glycerin, sorbitol and Anidrisorb 85/70. A preferred plasticizer is Anidrisorb 85/70, an aqueous solution of D-sorbitol and sorbitans. […] One preferred gelatin formulation for the soft gelatin capsules used in accordance with preferred embodiments includes gelatin in the range of about 40% to 48% and a plasticizer ranging in amount from about 20% to 35%. Another preferred plasticizer is sorbitol BP, a non-crystallizing sorbitol solution. When either a 70%, non-crystallizing sorbitol solution or Anidrisorb 85/70 are used alone, the amount of plasticizer used preferaby ranges from about 25% to 35%. Capsule formulations can also include other suitable additives, for example coloring agents, which impart specific characteristics such as the look and feel of the capsule. FD&C dyes and D & C dyes are examples of pharmaceutically acceptable coloring agents that may be used in preferred embodiments.
smiles,measurement,setting,value
"CC(C)Cc1ccc([C@H](C)C(=O)O)cc1 [Dexibuprofen, (S)-(+)-2-(4-isobutylphenyl)propionic acid]",Solubility in acetone,[1]; acetone,freely soluble
same,Solubility in aqueous solutions of alkali hydroxides and carbonates,[1]; aqueous solutions of alkali hydroxides and carbonates,soluble
same,Solubility in methanol,[1]; methanol,freely soluble
same,Solubility in methylene chloride,[1]; methylene chloride,freely soluble
same,Solubility in most organic solvents,[1]; most organic solvents,readily soluble
same,Solubility in water,[1]; water,practically insoluble
same,Reaction with glycerin (plasticizer of the capsule shell),[2],forming unwanted glycerol esters of dexibuprofen
